According to patent US20250073234A1, “COMBINATION THERAPIES INCLUDING PARP1 INHIBITORS” (Cornell University, priority 2022, published 2025):

Key:
[1] = test system: WPMY-1 cells; assay: qPCR of CAF / stromal activation markers in WPMY-1 cells; format: cell-based, human
Excerpt: (§1) To knock out PARP-1 in WPMY-1 cells, single-guide RNA sequences targeting PARP-1 exon2 were purchased from Synthego and transduced into WPMY-1 cells with recombinant Streptococcus pyogenes Cas9 protein (Truecut Cas9 Protein v2, Thermo), using the Neon Transfection System 1 (Invitrogen) following the manufacturer's protocol and single clones were expanded and screened by protein immunoblotting. To perform AP1-A binding site editing in the SQSTM promoter in WPMY-1 cells, single-guide RNA sequences targeting the human AP1-A binding site (Synthego) was transduced into cells with a Cas9 protein and a single-stranded donor oligonucleotide (ssODN, IDT) using Neon Electroporation System. Single clones were expanded and screened for AP1-A editing by Sanger sequencing. A point mutation to disrupt the API enhancer element in the p62 promoter was introduced by Site Directed Mutagenesis (Stratagene). Knockdown of MCT1, MCT4, FOS, PARP1, PARP2, CD38, ATG5, and SIRT1-7 genes in WPMY-1 cells were achieved by siRNA transfection using Lipofectamine RNAiMAX Transfection Reagent (Invitrogen). Transient overexpression was achieved by transfection using X-tremeGENE HP transfection reagent (Roche). Transfected cells were examined 48 hours after transfection. Establishing stably GFP or RFP expressing cells was achieved by lentivirus-mediated transduction. Lentivirus were produced in HEK293T cells using X-tremeGENE HP transfection reagent (Roche). Virus-containing supernatants were collected 48, 72 and 96 hours after transfection, filtered to eliminate cells, and supplemented with 8 μg/ml polybrene. Cells were infected with three rounds of viral supernatants and selected with puromycin (3 μg/ml). For autophagy or proteasome inhibition, WPMY-1 cells were treated for 12 hours with 100 nM bafilomycin Al or 12 hours with 20 μM of MG132, respectively, or vehicle (DMSO). For PARP1 inhibition, WPMY-1 cells were treated with PJ34 (2 days) or Olaparib (4 days) at the doses indicated in each experiment. For MCT1 inhibition, WPMY-1 cells were treated for 48 hours with 10 μM of AZD3965. For cJUN inhibition, WPMY-1 cells were treated for 48 hours with 10 μM of SP600125. For calpains and caspases inhibition, WPMY-1 cells were treated for 48 hours with 1-20 μM of Calpeptin (Tocris) or z-VAD-FMK (Tocris), respectively. For protein synthesis inhibition, WPMY-1 cells were treated with 50 μg/ml of cycloheximide (Sigma). Conditioned media (CM) was generated by collecting supernatant on day 3. CM was transferred to a 15 ml BD Falcon tube and centrifuged at 1300 rpm for 10 minutes. The supernatant was sterile filtered using a […] (Millex-GV) with a 10 ml syringe barrel. The samples were stored at […] for future experiments. Fractionation of the CM was achieved using Amicon Ultra centrifugal filters (3KUltracel, Millipore). The supernatant was centrifuged at 4000 rpm for 1 hour. The supernatant fraction that was >3 kDa remained above the filter and that which was <3 kDa passed through to the lower chamber. The >3-kDa fraction was resuspended in DMEM to the pre-filtration volume.
Total RNA from mouse tissues, cells and cultured organoids was extracted using the TRIZOL reagent (Invitrogen) and the RNeasy Mini Kit (QIAGEN), followed by DNase treatment. After quantification using a Nanodrop 1000 spectrophotometer (Thermo Scientific), RNA was either processed for RNA-seq or reverse-transcribed using random primers and MultiScribe Reverse Transcriptase (Applied Biosystems). Gene expression was analyzed by amplifying 20 ng of the complementary DNA using the CFX96 Real Time PCR Detection System with SYBR Green Master Mix (BioRad) and primers described in Table S1. The amplification parameters were set at 95° C. for 30 seconds, 58° C. for 30 seconds, and 72° C. for 30 seconds (40 cycles total). Gene expression values for each sample were normalized to the 18s RNA.

[2] = test system: p62 (SQSTM1) in WPMY-1 cells; assay: p62/SQSTM1 expression in WPMY-1 stromal fibroblasts (immunoblot, qPCR); format: cell-based, human
Excerpt: as §1, with “For PARP1 inhibition, WPMY-1 cells were treated with PJ34 (2 days) or Olaparib (4 days) at the doses indicated in each experiment.” left out

With `NC(=O)c1ccc[n+]([C@@H]2O[C@H](COP(=O)([O-])OP(=O)(O)OC[C@H]3O[C@@H](n4cnc5c(N)ncnc54)[C@H](O)[C@@H]3O)[C@@H](O)[C@H]2O)c1` [NAD^+] the “lactate-induced expression of CAF activation markers” value ([1]; lactate plus NAD+, 48 h) was “reverted” and the “rescue of lactate-induced reduction in p62” value ([2]; lactate-treated WPMY-1 cells, 48 h, NAD 150 μM, NR 200 μM) was “completely rescued the lactate-induced reduction in p62”.

`O=C(c1cc(Cc2n[nH]c(=O)c3ccccc23)ccc1F)N1CCN(C(=O)C2CC2)CC1` [Olaparib] was tested, and the “CAF markers (ACTA2, SFRP1, TGFB, MMP9, HA synthases)” value ([1]; Olaparib, basal and ADT conditions) was “upregulated CAF markers”, the “Has1 and Has3 expression” value ([1]; basal and ADT conditions) was “upregulated” and the Tgfb1 levels ([1]; basal and ADT conditions) was “increased levels of Tgfb1”. For the same molecule, the SPINK1 levels ([1]; human prostate cells, ADT conditions) was “highly upregulated”, the “SQSTM1 mRNA levels” value ([2]; WPMY-1 cells, basal and ADT conditions) was “reduced SQSTM1 mRNA levels” and the “p62 expression (protein, SQSTM1 mRNA)” value ([2]; WPMY-1 cells, PJ34 24 h, Olaparib 48 h) was “reduced the expression of p62 in a dose-dependent manner”.
